Data published in patent US11026944B2, “Compositions and methods for treating insomnia” (Eisai R&D Management Co., Ltd., priority 2014, dated 2021).

What was measured:
[1] = tested on: subjects with primary insomnia; assay: 001 Study Part B: next day KSS, DSST, PVT; format: in vivo, human
Source text: After the initial Screening visit, eligible subjects were scheduled to return to the clinic for 2 days during the Screening Period to conduct screening/baseline PSGs. These two days occurred at least 3 days after the initial Screening visit and within a window from Day-7 to Day-6 (±2 days). The first PSG was used to screen for sleep apnea and periodic limb movements in sleep (PLMS) and serve as the first baseline PSG. The second PSG was used as the second baseline PSG. Specific PSG variables were used to determine whether subjects met PSG inclusion criteria, and the average of PSG variables from these two PSGs was used as Baseline for this PD measure. Subjects who had met PSG inclusion criteria returned to the clinic on Day-1 for additional baseline procedures and randomization. Subjects were not allowed to nap on Day 1. On the evening of Day 1, after fasting a minimum of 3 hours, study drug was administered 30 minutes prior to the subject's habitual bedtime (lights-out), as calculated from the sleep diary for the first PSG during the Screening Period. PK blood samples were collected at prespecified timepoints, and PD assessments were performed. PSG was recorded on Day 1, postdose. Subjects were administered additional PD assessments each morning on Day 1 through Day 6. These assessments included the KSS, DSST, and PVT, in order to assess daytime sleepiness, level of alertness, and ability to concentrate. The KSS and DSST were also administered 5 minutes predose and 25 minutes postdose on Day 1, just prior to lights-out. Waketime Questionnaires were administered after the PD assessments within 15 minutes of lights-on, on Day 1 to Day 6. Time and duration of naps was recorded on Day 2.
Part B subjects were administered the KSS, DSST, and PVT within 15 minutes after lights-on specifically in that order, on each morning from Day 1 through Day 6, followed by the Waketime Questionnaire. The KSS and DSST were also administered 5 minutes predose and 25 minutes postdose on Day 1 (just prior to lights-out).

subjects with insomnia = assay: 201 Study: Karolinska Sleepiness Scale (next-day residual sleepiness); format: in vivo, human
Procedure: All subjects returned to the clinic on Day-1 for Baseline Period procedures. They remained in the clinic until Day 3. Morning assessments on Day 1 provided the Baseline values for the KSS, the Digit Symbol Substitution Test (DSST), and the Reaction Time Index (RTI). Assessments at 6 hours after waketime provided the Baseline values for the Waking Function Battery (WFB), and the Profile of Mood States-Brief (POMS-B). Subjects were then randomized to receive 1 of 6 doses of compound A or placebo for the next 15 days. Study drugs were tablets containing compound A-matched placebo or compound A of 1 mg, 2.5 mg, 5 mg, or 10 mg and to be ingested 30 minutes before the median habitual bedtime calculated from their Sleep Diary responses during the Screening Period. An 8-hour PSG, starting at the same bedtime as used for the screening and Baseline PSG nights, was recorded on the first 2 treatment nights (Days 1 and 2). The Sleep Diary continued to be completed each day in the clinic, and assessments of insomnia severity (ISI), next-day residual effects (KSS, DSST, and RTI) were conducted while subjects were in the clinic. On specified study days, plasma concentrations of compound A were assessed while subjects were in the clinic in the morning after awakening and at trough just before dosing.
The KSS was used to measure next-day residual effects at prespecified timepoints. In this test, subjects rate their sleepiness using the KSS, a 9-point verbally anchored scale. Categories and scores range from“extremely alert” (score=1), “alert” (3), “neither alert nor sleepy” (5), “sleepy-but no difficulty remaining awake” (7), to “extremely sleepy-fighting sleep” (9). The key outcome parameter for the KSS was the score from 1 to 9.
Each dose was assessed for next-day residual sleepiness using the KSS. A mean difference of change from baseline in KSS at 1 hour after waketime on Day 2 and Day 3 of less than 4 units was incorporated into the utility function. A dose of compound A was considered to have an acceptable KSS at Day 15 and Day 16 if the mean difference of change from baseline in KSS at 1 hour after waketime on Day 15 and Day 16 at this dose relative to placebo was less than 4 units. Operationally, acceptable KSS for Day 15 and Day 16 was defined as the […] boundary of a 90% confidence interval (CI) being less than 4 units (of the mean difference of change from baseline in KSS at 1 hour after waketime at this dose relative to placebo).
In Table 6, “Baseline” was defined as the time-matched value on Day 1. “LS Means Diff” refers to the differences between LS Means of Placebo and each compound A dose, “95% CI” means to 95% CI of LS Means Diff. “p-value” was analyzed using analysis of covariance (ANCOVA) with baseline as a covanate.

[2] = 1 hour post waketime, 1 mg nightly
[3] = 1 hour post waketime, 2.5 mg nightly
[4] = 1 hour post waketime, 5 mg nightly
[5] = 1 hour post waketime, 10 mg nightly
[6] = 1 hour post waketime, 15 mg nightly
[7] = 1 hour post waketime, 25 mg nightly

**Q.** What does the source list for Cc1ncc(OC[C@@]2(c3cccc(F)c3)C[C@H]2C(=O)Nc2ccc(F)cn2)c(C)n1 [Compound A, (1R,2 S)-2-(((2,4-dimethylpyrimidin-5-yl)oxy)methyl)-2-(3-fluorophenyl)-N-(5-fluoropyridin-2-yl) cyclopropanecarboxamide]?
**A.** next day effects on KSS, DSST, or PVT ([1]; any dose of compound A (2.5, 10, 25 mg), zolpidem 10 mg): no clinically significant next day effects; measures of next-day residual sleepiness ([1]; single 25 mg evening dose): some individuals at this dose exhibited increases from baseline; KSS vs placebo, significance (subjects with insomnia; 15 min post waketime timepoints): No statistically significant differences; Change from Baseline in KSS, Mean of Days 2 & 3: LS Means Diff vs placebo (subjects with insomnia; [2]): 0.02; Change from Baseline in KSS, Mean of Days 2 & 3: Mean (subjects with insomnia; [2]): −0.2; Change from Baseline in KSS, Mean of Days 15 & 16: LS Means Diff vs placebo (subjects with insomnia; [2]): 0.51; Change from Baseline in KSS, Mean of Days 15 & 16: Mean (subjects with insomnia; [2]): 0.3; Change from Baseline in KSS, Mean of Days 2 & 3: LS Means Diff vs placebo (subjects with insomnia; [3]): −0.06; Change from Baseline in KSS, Mean of Days 2 & 3: Mean (subjects with insomnia; [3]): −0.3; Change from Baseline in KSS, Mean of Days 15 & 16: LS Means Diff vs placebo (subjects with insomnia; [3]): 0.13; Change from Baseline in KSS, Mean of Days 15 & 16: Mean (subjects with insomnia; [3]): −0.1; Change from Baseline in KSS, Mean of Days 2 & 3: LS Means Diff vs placebo (subjects with insomnia; [4]): 0.20; Change from Baseline in KSS, Mean of Days 2 & 3: Mean (subjects with insomnia; [4]): −0.1; Change from Baseline in KSS, Mean of Days 15 & 16: LS Means Diff vs placebo (subjects with insomnia; [4]): 0.43; Change from Baseline in KSS, Mean of Days 15 & 16: Mean (subjects with insomnia; [4]): 0.1; Change from Baseline in KSS, Mean of Days 2 & 3: LS Means Diff vs placebo (subjects with insomnia; [5]): 0.16; Change from Baseline in KSS, Mean of Days 2 & 3: Mean (subjects with insomnia; [5]): 0.0; Change from Baseline in KSS, Mean of Days 15 & 16: LS Means Diff vs placebo (subjects with insomnia; [5]): 0.01; Change from Baseline in KSS, Mean of Days 15 & 16: Mean (subjects with insomnia; [5]): −0.1; Change from Baseline in KSS, Mean of Days 2 & 3: LS Means Diff vs placebo (subjects with insomnia; [6]): 0.32; Change from Baseline in KSS, Mean of Days 2 & 3: Mean (subjects with insomnia; [6]): 0.1; Change from Baseline in KSS, Mean of Days 15 & 16: LS Means Diff vs placebo (subjects with insomnia; [6]): 0.38; Change from Baseline in KSS, Mean of Days 15 & 16: Mean (subjects with insomnia; [6]): 0.1; Change from Baseline in KSS, Mean of Days 2 & 3: LS Means Diff vs placebo (subjects with insomnia; [7]): 0.47; Change from Baseline in KSS, Mean of Days 2 & 3: Mean (subjects with insomnia; [7]): 0.4; Change from Baseline in KSS, Mean of Days 15 & 16: LS Means Diff vs placebo (subjects with insomnia; [7]): 0.68; Change from Baseline in KSS, Mean of Days 15 & 16: Mean (subjects with insomnia; [7]): 0.6; KSS LS mean differences vs placebo, significance (subjects with insomnia; 1 hour post waketime, Mean of Days 2/3, 1 mg to 15 mg): not statistically significant; KSS vs placebo, significance (subjects with insomnia; 2 hour post waketime, mean of Days 2/3, 15 mg and 25 mg): statistical significance; KSS vs placebo, significance (subjects with insomnia; 2 hour post waketime, mean of Days 15/16, 25 mg): statistically significant
